Experimental data reported in ChEMBL document CHEMBL5532712, “A Screening of 10,240 NatureBank Fractions Identifies Nematicidal Activity in Agelasine-Containing Extracts from Sponges” (J Nat Prod, 2024).

What was measured:
[1] = Toxicity in Zebrafish embryo assessed as reduction in viability at 100 uM measured after 24 hrs by microscope based analysis relative to control; parameters: species or system Danio rerio; details: read-out: Activity
[2] = Toxicity in Zebrafish embryo assessed as reduction in viability at 50 uM measured after 24 hrs by microscope based analysis relative to control; parameters: species or system Danio rerio; details: read-out: Activity
Caenorhabditis elegans [3] = experiment: Nematicidal activity against Caenorhabditis elegans assessed as reduction in larval motility; format: functional, organism-based
Caenorhabditis elegans [4] = experiment: Nematicidal activity against Caenorhabditis elegans assessed as total paralysis at 100 to 200 uM relative to control; format: functional; details: dose 100-200 µM

Compound | mortality at 24 h, 100 µM [1] [%] | mortality at 24 h, 50 µM [2] [%] | IC50 (Caenorhabditis elegans [3]) [µM] | Activity (Caenorhabditis elegans [4]) [%]
CC1=CC(=O)C[C@@H]2[C@@](C)(CC/C(C)=C/C[n+]3cn(C)c4ncnc(N)c43)[C@H](C)CC[C@@]12C | 100 | 100 | 50 | 100
CC1=CCC[C@@H]2[C@@](C)(CC/C(C)=C/Cn3c[n+](C)c4ncnc(N)c43)[C@H](C)CC[C@@]12C | 100 | 100 | – | –
C=CCCCCCCCCC[C@@H](O)[C@H](C)N [HALAMINOL A] | 66.6 | 100 | – | –
